Data set [1] concerns BCMA CAR T cells with or without the CACCR.
Data set [2] has the same test system. The data set can be described thus: Rituximab NK cell-mediated antibody-dependent cellular cytotoxicity assay. Type of data set: cell-based. The following applies: both types of BCMA CAR T cells. From the text:
(§1) To minimize any potential safety concerns in clinical development, the BCMA CAR construct was designed to incorporate two rituximab mimotopes, which would sensitize the BCMA CAR T cells to rituximab-mediated depletion. We next tested the effects of rituximab on the BCMA CAR T cells with or without the CACCR.

In data set [3] the test system is BCMA CAR T cells, with or without the CACCR. Nature of the data set: Rituximab-mediated CAR T cell depletion in vivo (MM.1S-Luc-GFP-bearing mice). Set-up: species or system NSG mice. The procedure: Next, we tested the effect of rituximab on decreasing BCMA CAR T cells, with or without the CACCR, in vivo. […] Rituximab (10 mg/kg) or PBS vehicle control was dosed intraperitoneally starting on the day of CAR T cell dosing and then daily for 4 additional days (n=9 or 10 per group).

Data set [4] deals with BCMA CAR T cells with or without the CACCR. The data set can be described thus: Rituximab complement-dependent cytotoxicity assay. The class given is cell-based. The following applies: both types of BCMA CAR T cells.
From the text: as §1

In the case of `Cc1nc(Nc2ncc(C(=O)Nc3c(C)cccc3Cl)s2)cc(N2CCN(CCO)CC2)n1` [dasatinib], the “cytotoxicity of BCMA CAR T cells” value in data set [1] is on record as “abolished the cytotoxicity”.
rituximab: the “viable CAR T cells” value in data set [2] and in data set [4] was “significantly decreased viable CAR T cells in a dose-responsive manner” throughout. Also, the “tumor burden following rituximab-mediated CAR T cell depletion” value in data set [3] (rituximab 10 mg/kg i.p.) is on record as “compromised anti-tumor efficacy”. The “CAR T cell counts in peripheral blood” value in data set [3] (rituximab 10 mg/kg i.p. daily for 5 days, 7 days post-CAR T cell dosing) is “efficient and complete elimination of both CAR T cells”.
